Patent publication US20220296594A1, “POTENTIATORS OF ANTIMICROBIAL AND/OR ANTIVIRAL AGENTS” (MASSACHUSETTS INSTITUTE OF TECHNOLOGY, priority 2019, published 2022)
Entries after “also recorded” stand apart in the source; their conditions may differ.

Experiments:
[1] = test system: Escherichia coli strain K-12 MG1655; assay: Time-kill experiments (antibiotic lethality with biochemical supplementation); settings: for ciprofloxacin (CIP) lethality / gentamicin (GENT) lethality / ampicillin (AMP) lethality: time-kill, with vs without the added substance; for ciprofloxacin (CIP) lethality: 16 ng/mL CIP; for gentamicin (GENT) lethality: 48 ng/mL GENT (minimal medium); for ampicillin (AMP) lethality: 4 μg/mL AMP; for antibiotic lethality: supplementation in wildtype cells, tested antibiotics AMP, CIP and GENT
E. coli cells [2] = settings: E. coli cells treated with the antibiotic; cited from earlier work
E. coli cells [3] = assay: Oxygen consumption rate quantification (Seahorse XFe96 Extracellular Flux Analyzer); assay type: cell-based, Escherichia coli; settings: for cellular oxygen consumption rate (OCR) following antibiotic treatment: antibiotic alone, in contrast to control conditions; for cellular OCR under antibiotic treatment: 1 mM adenine or uracil supplementation, AMP, CIP or GENT treatment
E. coli = assay: Unstressed growth in MOPS minimal medium; settings: exogenous supplementation, no antibiotic
E. coli cells [4] = assay: Intracellular metabolite quantification by LC-MS/MS after adenine or uracil supplementation; assay type: cell-based, Escherichia coli
Method: Intracellular metabolites were quantified on an AB SCIEX Qtrap® 5500 mass spectrometer (AB SCIEX; Framingham, Mass.), as previously described (McCloskey et al., 2018), and processed using in house scripts. […] Samples were collected 1 hr after supplementation, and aliquots with biomass equivalents to 10 mL of cell culture at OD600=0.1 were subjected to metabolite extraction using a 40:40:20 mixture of acetonitrile, methanol and LC-MS grade water. Uniformly labeled ^13C-standards were generated by growing E. coli in uniformly labeled Glucose M9 minimal media in aerated shake flasks, as previously described (McCloskey et al., 2014). Calibration mixes of standards were split across several mixes, aliquoted, and lyophilized to dryness. All samples and calibrators were equally spiked with the same internal standards. Samples were quantified using […] mass spectrometry. Calibration curves were run before and after all biological and analytical replicates. Consistency of quantification between calibration curves was checked by running a Quality Control sample composed of all biological replicates. Values reported are derived from the average of the biological triplicates, analyzed in duplicate (n=6).
Metabolite concentrations were estimated from LC-MS/MS peak heights using previously generated calibration curves. […] Metabolites in blanks with a concentration greater than 80% of that found in the biological samples were similarly excluded. Missing values were imputed by bootstrapping using the R package Amelia II (v. 1.7.4, 1,000 imputations) (Honaker et al., 2011). Remaining missing values were approximated as ½ the lower limit of quantification for the metabolite normalized to the biomass of the sample. Intracellular metabolite concentrations were calculated based on an estimated cell density of 7·10^7 CFU/mL at OD600=0.1 (FIGS. 5A-5C) and an estimated cell volume of 1.3 fL for non-stressed exponential phase E. coli cells (Milo and Phillips, 2016).

[5] = 1 mM supplementation, 1 hr, MOPS minimal medium

Row | SMILES | ciprofloxacin (CIP) lethality [1] | gentamicin (GENT) lethality [1] | ampicillin (AMP) lethality [1] | cellular oxygen consumption rate (OCR) following antibiotic treatment (E. coli cells [3]) | antibiotic lethality [1] | also measured
1 | Sc1ncnc2nc[nH]c12 [6-mercaptopurine] | decreased | increased | decreased | – | – | –
2 | CC1(C)S[C@@H]2[C@H](NC(=O)[C@H](N)c3ccccc3)C(=O)N2[C@H]1C(=O)O [AMP, ampicillin] | – | – | – | increased | – | intracellular purine nucleic acid bases (adenine, guanine) (E. coli cells [2]): depleted; intracellular pyrimidine nucleic acid bases (cytosine, thymine, uracil) (E. coli cells [2]): accumulate
3 | O=C(O)c1cn(C2CC2)c2cc(N3CCNCC3)c(F)cc2c1=O [CIP, ciprofloxacin] | – | – | – | increased | – | –
4 | CNC(C)C1CCC(N)C(OC2C(N)CC(N)C(OC3OCC(C)(O)C(NC)C3O)C2O)O1 (stereo not drawn) [GENT, gentamicin] | – | – | – | increased | – | –
5 | Nc1ncnc2nc[nH]c12 [adenine] | decreases | decreases | decreases | – | decreased | cellular OCR under antibiotic treatment (E. coli cells [3]): significantly repressed; unstressed growth (E. coli): does not significantly alter; NADH/NAD+ ratio (E. coli cells [4]; [5]): unchanged; NADPH/NADP+ ratio (E. coli cells [4]; [5]): modest decrease; adenylate energy charge (E. coli cells [4]; [5]): modest decrease; intracellular fumarate (E. coli cells [4]; [5]): decreased; intracellular succinate (E. coli cells [4]; [5]): increased; intracellular adenine nucleotides (E. coli cells [4]; exogenous adenine addition): accumulate
6 | Nc1cc[nH]c(=O)n1 [cytosine] | – | – | – | – | potentiated; also recorded: potentiating effect | –
7 | CCn1cc(C(=O)O)c(=O)c2cc(F)c(N3CCNCC3)cc21 [norfloxacin] | – | – | – | – | – | intracellular purine nucleic acid bases (adenine, guanine) (E. coli cells [2]): depleted; intracellular pyrimidine nucleic acid bases (cytosine, thymine, uracil) (E. coli cells [2]): accumulate
8 | COc1cc(Cc2cnc(N)nc2N)cc(OC)c1OC [trimethoprim] | decreases | increases | decreases | – | – | –
9 | O=c1cc[nH]c(=O)[nH]1 [uracil] | increases | increases | increases | – | potentiated; also recorded: potentiating effect | cellular OCR under antibiotic treatment (E. coli cells [3]): enhanced; unstressed growth (E. coli): does not significantly alter
10 | O=c1ccn([C@@H]2O[C@H](CO)[C@@H](O)[C@H]2O)c(=O)[nH]1 [uridine] | – | – | – | – | potentiating effect | –
